Patent US10265692B2, “Ex vivo methods for predicting and confirming in vivo metabolism of pharmaceutically active compounds” (Empiriko Corporation, priority 2013, dated 2019)

Assays:
[1] = Furosemide oxidation by conventional method with octabromo tetrakis(2,6-dichlorophenyl)porphyrin Fe(III)Cl and hydrogen peroxide, with or without imidazole co-catalyst, metabolites by LC/MS-ESI; format: in vitro ADME; conditions: DMSO, H2O2, 24 hours; for furosemide metabolites produced, No Co-Catalyst: control without imidazole; for furosemide metabolites produced, Imidazole Co-Catalyst: with imidazole co-catalyst
Protocol: Furosemide API (12.5 mg, 0.0378 mmol) in DMSO (0.1 M) was added to octabromo tetrakis(2,6-dichlorophenyl)porphyrin Fe(III)Cl (0.6 mg, 0.000378 mmol), followed by imidazole (0.13 mg, 0.00189 mmol). Over a 1 hour period, 50% w/w hydrogen peroxide (6.44 uL, […]) was added dropwise. An additional amount of hydrogen peroxide was added after 2 hours. The reaction was monitored by LC and stopped after 24 hours.
A control reaction was run under the exact parameters as stated above, without the addition of imidazole as a co-catalyst.
Samples analyzed according to parameters in Example 1.

[2] = Ex vivo prediction of drug-to-drug interaction: microwave oxidation of drug mixtures with Octabromo tetrakis(2,6-dichlorophenyl)porphyrin Fe(III)Cl and sodium hypochlorite, metabolites by LC/MS; conditions: saxagliptin reacted in mixture with Metformin, porphyrin Fe(III)Cl catalyst, NaOCl
Protocol: Metformin and Saxagliptin Mixture Microwave Protocol: Metformin Hydrochloride (8.19 mg, 0.06341 mmol) in 1:0.25 mL acetonitrile:water was reacted with potassium carbonate (10.96 mg, 0.07926) and stirred at 40° C. for 30 minutes in a microwave tube. Saxagliptin API (20.0 mg, 0.06341 mmol) extracted using 40 mL 1:1 methanol:ethanol, filtered and concentrated in vacuo. The resulting solid taken up in 2:0.25 mL acetonitrile:water and transferred to microwave tube. Octabromo tetrakis(2,6-dichlorophenyl)porphyrin Fe(III)Cl (10.21 mg, 0.006341 mmol) then added, followed by sodium hypochlorite (156.6 uL, 0.3171 mmol). Reaction run in the microwave at 80° C. for 30 minutes (CC-03-149A).

Structure (SMILES) | furosemide metabolites produced, No Co-Catalyst [1] | furosemide metabolites produced, Imidazole Co-Catalyst [1] | Presence of Saxagliptin metabolites [2]
NS(=O)(=O)c1cc2c(cc1Cl)N1CC(=O)C=CC1OC2=O (stereo not shown) [FUR1] | Present | Present | –
NS(=O)(=O)c1cc(C(=O)[O-])c(-[n+]2cccc(O)c2)cc1Cl [FUR2] | Present | Present | –
Nc1cc(Cl)c(S(N)(=O)=O)cc1C(=O)O [FUR3] | Present | Present | –

Continued, values first:

furosemide metabolites produced, No Co-Catalyst [1] | furosemide metabolites produced, Imidazole Co-Catalyst [1] | Presence of Saxagliptin metabolites [2] | Structure (SMILES)
– | Present | – | NS(=O)(=O)c1cc2c(cc1Cl)[N+]1([O-])CC(=O)C=CC1OC2=O (stereo not shown) [FUR5]
– | – | Not Detected | N#C[C@@H]1C[C@@H]2C[C@@H]2N1C(=O)C(N)C12CC3CC(O)(CC(O)(C3)C1)C2 (stereo partly shown) [Hydroxy-Saxagliptin]
– | Present | – | NS(=O)(=O)c1cc(C(=O)O)c(NCC(=O)CCC(=O)O)cc1Cl [FUR6]
– | Present | – | NS(=O)(=O)c1cc2c(cc1Cl)[N+]1(O)CC(=O)C(O)C(=O)C1OC2=O (stereo not shown) [FUR4]
